Experimental data published in ChEMBL document CHEMBL1142772, “Discovery and SAR of biaryl piperidine MCH1 receptor antagonists through solid-phase encoded combinatorial synthesis” (Bioorg Med Chem Lett, 2005).

Assay: Area under curve (time =0-6 hours)
Format: ADME
Design: time < 6 hr
Details: rat

CN1CCC(CNC(=O)Nc2cc(Cl)cc(Cl)c2)(c2ccc(-c3cccnc3)cc2)CC1
AUC: 1.4 µM
